Patent US11547679B2, “Mitoriboscins: mitochondrial-based therapeutics targeting cancer cells, bacteria and pathogenic yeast” (LUNELLA BIOTECH, INC., priority 2017, dated 2023)
In brackets after ≈: the same amount, converted by molar mass.

What was measured:
MRSA ATCC 43300 = assay: MIC by broth dilution method; assay type: cell-based, Methicillin-resistant Staphylococcus aureus
Protocol: (§1) The minimal inhibitory concentration (MIC) of the antibacterial compounds may be determined using the broth dilution method, according to CLSI guidelines. Test compound solutions (or antibiotic solutions used as positive controls) were diluted, serially, with MHB medium. Then, the suspensions of the microorganisms, prepared from overnight cultures of bacteria in the MHB medium, at a concentration of 10^6 CFU/ml, were added to each dilution in a 1:1 ratio. McFarland standards were used as a reference to adjust the turbidity of microorganism suspensions. Growth (or lack thereof) of the microorganisms was determined after incubation for 24 hours at 37° C. by turbidimetry (wavelength of 600 nm). MIC 50 and MIC 99 are defined as the minimum inhibitory concentration of the compound required for 50% and 99% inhibition of bacterial growth. […] The susceptibility test by measurement of MIC was performed in triplicate and repeated three times independently. Statistical significance was determined using the Student's t-test and values of less than 0.05 were considered significant.

MCF7 cells [1] = assay: Seahorse XF96 metabolic flux: extracellular acidification rate (ECAR), glycolysis; assay type: cell-based, human
Source text: The present approach further involves methods of functional validation at step S105, during which a compound's function as a mitochondrial inhibitor may be confirmed. A number of methods may be used for functional validation, including, for example, metabolic flux analysis, mammosphere assays, viability assays, and antibiotic (anti-bacterial and/or anti-fungal) activity. For example, the inventors determined extracellular acidification rates (ECAR) and real-time oxygen consumption rates (OCR) for MCF7 cells using the Seahorse Extracellular Flux (XF96) analyzer (Seahorse Bioscience, MA, USA). MCF7 cells were maintained in DMEM supplemented with 10% FBS (fetal bovine serum), 2 mM GlutaMAX, and 1% Pen-Strep. 5,000 cells per well were seeded into XF96-well cell culture plates, and incubated overnight at 37° C. in a 5% CO2 humidified atmosphere. After 24 hours, cells were treated with selected compounds showing ATP-depletion without prominent cytotoxicity at various concentrations (or vehicle alone). After 72 hours of treatment, cells were washed in pre-warmed XF assay media (for OCR measurement, XF assay media was supplemented with 10 mM glucose, 1 mM Pyruvate, 2 mM L-glutamine and adjusted at pH 7.4). Cells were maintained in 175 μL/well of XF assay media at 37° C. in a non-CO2 incubator for 1 hour. During incubation, 25 μL of 80 mM glucose, 9 μM oligomycin, 1M 2-deoxyglucose (for ECAR measurement) and 25 μL of 10 μM oligomycin, 9 μM FCCP, 10 μM rotenone, 10 μM antimycin A (for OCR measurement) in XF assay media was loaded into the injection ports of the XFe-96 sensor cartridge. During the experiment, the instrument injected these inhibitors into the wells at a given time point, while ECAR/OCR was measured continuously. […] Data sets were analyzed by XFe-96 software, using one-way ANOVA and Student's t-test calculations. […] For example, the inventors assessed functional validation of three candidates using the Seahorse Analyzer, which quantitatively measures oxygen consumption rate (OCR) and extracellular acidification rate (ECAR). […]

MCF7 cells [2] = assay: Seahorse XF96 metabolic flux: oxygen consumption rate (OCR), ATP; assay type: cell-based, human; settings: for mitochondrial oxygen-consumption: MCF7, 72 hours treatment; for rank order potency to reduce maximal respiration and ATP production: MCF7, top 10 hits
Source text: The present approach further involves methods of functional validation at step S105, during which a compound's function as a mitochondrial inhibitor may be confirmed. A number of methods may be used for functional validation, including, for example, metabolic flux analysis, mammosphere assays, viability assays, and antibiotic (anti-bacterial and/or anti-fungal) activity. For example, the inventors determined extracellular acidification rates (ECAR) and real-time oxygen consumption rates (OCR) for MCF7 cells using the Seahorse Extracellular Flux (XF96) analyzer (Seahorse Bioscience, MA, USA). MCF7 cells were maintained in DMEM supplemented with 10% FBS (fetal bovine serum), 2 mM GlutaMAX, and 1% Pen-Strep. 5,000 cells per well were seeded into XF96-well cell culture plates, and incubated overnight at 37° C. in a 5% CO2 humidified atmosphere. After 24 hours, cells were treated with selected compounds showing ATP-depletion without prominent cytotoxicity at various concentrations (or vehicle alone). After 72 hours of treatment, cells were washed in pre-warmed XF assay media (for OCR measurement, XF assay media was supplemented with 10 mM glucose, 1 mM Pyruvate, 2 mM L-glutamine and adjusted at pH 7.4). Cells were maintained in 175 μL/well of XF assay media at 37° C. in a non-CO2 incubator for 1 hour. During incubation, 25 μL of 80 mM glucose, 9 μM oligomycin, 1M 2-deoxyglucose (for ECAR measurement) and 25 μL of 10 μM oligomycin, 9 μM FCCP, 10 μM rotenone, 10 μM antimycin A (for OCR measurement) in XF assay media was loaded into the injection ports of the XFe-96 sensor cartridge. During the experiment, the instrument injected these inhibitors into the wells at a given time point, while ECAR/OCR was measured continuously. ECAR and OCR measurements were normalized by protein content (using the Sulphorhodamine B assay). Data sets were analyzed by XFe-96 software, using one-way ANOVA and Student's t-test calculations. All experiments were performed in triplicate, and results validated the mitochondrial inhibition effects of mitoriboscin compounds described herein. It should be appreciated that numerous methods are known for functional validation, and that persons of skill in the art may select one or more depending on the validation needs (e.g., other assays that measure or approximate mitochondrial function). The present approach involves methods of function validation of mitoriboscin compounds. For example, the inventors assessed functional validation of three candidates using the Seahorse Analyzer, which quantitatively measures oxygen consumption rate (OCR) and extracellular acidification rate (ECAR). OCR is a surrogate marker for OXPHOS and ECAR is a surrogate marker for glycolysis and L-lactate production.

MCF7 cells [3] = assay: Mammosphere formation; assay type: cell-based, human; settings: MCF7, 5 μM
Source text: The present approach involves methods of testing compounds, and in particular mitoriboscins, for anti-cancer properties. As discussed above, vHTS and computational chemistry may be used to identify candidate mitochondrial inhibitors. Those candidates may be tested for specific anti-cancer properties. For examples, the inventors compared seven candidate compounds in parallel for their ability to inhibit mammosphere formation in MCF7 cells. […] For example, 23/G4 (Group 1) reduced mammosphere formation by 50% at this concentration. Similarly, 24/F9 (Group 2) and 24/D4 (Group 3), both reduced mammosphere formation by ˜90%.

P. auriginosa ATCC 27853 = assay: MIC by broth dilution method; assay type: cell-based; settings: P. auriginosa ATCC 27853, 24 hours at 37° C.
Protocol: as §1, with “nm).” for “nm). MIC 50 and MIC 99 are defined as the minimum inhibitory concentration of the compound required for 50% and 99% inhibition of bacterial growth.”, “independently.” for “independently. Statistical significance was determined using the Student's t-test and values of less than 0.05 were considered significant.”

[4] = tested on: Strept. pyogenes ATCC 19615; assay: MIC by broth dilution method; assay type: cell-based; settings: Strept. pyogenes ATCC 19615, 24 hours at 37° C.
Protocol: as §1, with “nm).” for “nm). MIC 50 and MIC 99 are defined as the minimum inhibitory concentration of the compound required for 50% and 99% inhibition of bacterial growth.”, “independently.” for “independently. Statistical significance was determined using the Student's t-test and values of less than 0.05 were considered significant.”

K. pneumoniae ATCC 13883 = assay: MIC by broth dilution method; assay type: cell-based; settings: K. pneumoniae ATCC 13883, 24 hours at 37° C.
Protocol: as §1, with “nm).” for “nm). MIC 50 and MIC 99 are defined as the minimum inhibitory concentration of the compound required for 50% and 99% inhibition of bacterial growth.”, “independently.” for “independently. Statistical significance was determined using the Student's t-test and values of less than 0.05 were considered significant.”

MCF7 cell monolayers = assay: Cell viability of MCF7 cell monolayers; assay type: cell-based, human
Protocol: (§2) The present approach includes methods of confirming cell viability. Persons of skill in the art may select one or more methods for confirming cell viability suitable for the particular embodiment. The inventors initially used the Sulphorhodamine (SRB) assay, which is based on the measurement of cellular protein content. After treatment for 72 hours in 96-well plates, cells were fixed with 10% trichloroacetic acid (TCA) for 1 hour in the cold room, and were dried overnight at room temperature. Then, cells were incubated with SRB for 15 min, washed twice with 1% acetic acid, and air dried for at least 1 hour. Finally, the protein-bound dye was dissolved in a 10 mM Tris, pH 8.8 solution and read using the plate reader at 540-nm. Using the SRB assay, the inventors selected only the compounds depleting ATP levels without prominent cytotoxicity for further analysis. Prominent cytotoxicity was defined as fewer than 30% of cells still on the plate. Of course, embodiments employing other cell viability confirmation methodology may select compounds for further analysis based on other considerations as may be known in the art.
(§3) Based on this analysis, the inventors assessed the functional effects of the three candidates on overall viability in MCF7 cell monolayers and normal human fibroblasts (hTERT-BJ1 cells) (FIG. 6). […]

[5] = tested on: normal human fibroblasts (hTERT-BJ1 cells); assay: Cell viability of normal fibroblasts; assay type: cell-based; settings: 5 μM
Protocol: as §2, §3

| MIC 50% (P. auriginosa ATCC 27853) | MIC 99% (P. auriginosa ATCC 27853) | MIC 50% [4] | MIC 99% [4] | MIC 50% (K. pneumoniae ATCC 13883) | MIC 99% (K. pneumoniae ATCC 13883) | Structure (SMILES) | sensitivity of MRSA (MRSA ATCC 43300) | mitochondrial oxygen-consumption (MCF7 cells [2]) | reduction of mammosphere formation (MCF7 cells [3]) | rank order potency to reduce maximal respiration and ATP production (MCF7 cells [2]; FIG. 10) | other results |
| --- | --- | --- | --- | --- | --- | --- | --- | --- | --- | --- | --- |
| 16 µg/mL (≈ 34.3 µM) | 32 µg/mL (≈ 68.6 µM) | 16 µg/mL (≈ 34.3 µM) | 32 µg/mL (≈ 68.6 µM) | 16 µg/mL (≈ 34.3 µM) | 32 µg/mL (≈ 68.6 µM) | CCCc1ccc(OCc2ccccc2)c(CN2CCC3(CC2)CC(N(C)C)C(C)(O)CO3)c1 (centres unmarked) [24/D4] | sensitive | dose-dependently inhibited | ~90% | – | effect on glycolysis (MCF7 cells [1]): suppressed |
| – | – | – | – | – | – | C[C@H]1c2cccc(O)c2C(=O)C2=C(O)[C@]3(O)C(=O)C(C(N)=O)=C(O)[C@@H](N(C)C)[C@@H]3[C@@H](O)[C@@H]21 [DOXYCYCLINE, reference compound] | – | – | – | – | MIC50 (P. auriginosa ATCC 27853): 1 µg/mL (≈ 2.25 µM); MIC99 (P. auriginosa ATCC 27853): 2 µg/mL (≈ 4.5 µM) |
| – | – | – | – | – | – | OC1C(NCc2ccccc2)CCCC1Oc1ccccc1Oc1cccc(F)c1 (centres unmarked) [23/E9] | – | – | – | top 6 | – |
| – | – | – | – | – | – | CN(C)Cc1cccc(C2CCCN2Cc2ccccc2OCc2cccc(F)c2)n1 (centres unmarked) [25/B3] | – | – | – | top 6 | – |
| – | – | – | – | – | – | CC1(C)S[C@@H]2[C@H](NC(=O)[C@H](N)c3ccc(O)cc3)C(=O)N2[C@H]1C(=O)O [AMOXICILLIN, reference compound] | resistant | – | – | – | – |
| >32 µg/mL | >64 µg/mL | 32 µg/mL (≈ 68.7 µM) | 64 µg/mL (≈ 137 µM) | 32 µg/mL (≈ 68.7 µM) | 64 µg/mL (≈ 137 µM) | CN1CCN(C2CCN(Cc3cc(C(C)(C)C)ccc3OCc3ccccc3)CCC2O)CC1 (centres unmarked) [24/F9] | – | dose-dependently inhibited | ~90% | top 6 | effect on glycolysis (MCF7 cells [1]): suppressed |
| – | – | – | – | – | – | CN(C)C1CC2(CCN(Cc3cc(Cl)ccc3OCc3ccccc3)CC2)OCC1(C)O (centres unmarked) [24/H9] | – | – | – | top 6 | – |
| 16 µg/mL (≈ 37.7 µM) | 32 µg/mL (≈ 75.5 µM) | 4 µg/mL (≈ 9.44 µM) | 8 µg/mL (≈ 18.9 µM) | 16 µg/mL (≈ 37.7 µM) | 32 µg/mL (≈ 75.5 µM) | OC1C(NCc2ccccc2)CCCC1Oc1ccccc1Oc1ccc(Cl)cc1 (centres unmarked) [23/G4] | sensitive | dose-dependently inhibited | 50% | top 6 | increase in glycolysis rates (MCF7 cells [1]): more than 1.5 fold; reduction of ATP levels (MCF7 cells [2]; MCF7, 500 nM): > 50%; reduction of ATP levels (MCF7 cells [2]; MCF7, 2.5 μM): ~75%; reduction in ATP levels (MCF7 cells [2]; MCF7, 5 μM, FIG. 10): greater than 75%; effect on overall cell viability of MCF7 monolayers (MCF7 cell monolayers; 500 nM and 2.5 μM): little or no effect; reduction of viability of MCF7 cells (MCF7 cell monolayers; 5 μM): 70%; effect on viability of hTERT-BJ1 cells [5]: no effect |
| – | – | – | – | – | – | CN1CCCN(C2CCN(Cc3cc(Cl)ccc3OCc3ccccc3)CCC2O)CC1 (centres unmarked) [24/H6] | – | – | – | top 6 | – |
